Measurements published in patent US20250195427A1, “ANTI-INFLAMMATORY DRUG-ELUTING COMPOSITIONS AND METHODS” (THE REGENTS OF THE UNIVERSITY OF CALIFORNIA, priority 2022, published 2025).
Values after ≈ are worked out from the molar mass of the structure shown.

How the values were obtained:
[1] = cited from earlier work
[2] = Drug loading of mPEG-b-p(HPMAm-Lacn) micelles by HPLC (loaded concentration, encapsulation efficiency, loading capacity); assay type: physicochemical; details: for final concentration of drug loaded inside MCs: polymer 10 mg/mL, 1 mL MC solution, HPLC; for difference in encapsulation efficiency (EE) % with various polymer/drug ratios: polymer/drug ratios 10:0.25 to 10:2
Protocol: Drug loaded MCs were formed by self-assembly via a solvent evaporation method. Briefly, 10 mg of copolymers […] dissolved in 1 mL of acetone. Various amounts of drugs (0.25, 0.5, 1 and 2 mg) were then added to the copolymer solution and vortexed until fully mixed. […] The next day, the MC solution was centrifuged at 4,000 rpm at 22° C. for 10 min to remove unencapsulated drugs. LE, PA, and DEX were three drugs of interest. 30 mg/mL of drug stock solutions were prepared in DMSO. Unloaded MCs were prepared with the same procedure without the addition of drugs. The amount of loaded drugs (LE, PA and DEX) in the polymeric MCs was determined by using High Performance Liquid Chromatography (HPLC). Taking LE as an example, after centrifugation of the MC solution, the unencapsulated LE pellet was redissolved in 1 mL of ACN. […] LE dissolved in ACN (concentration from 0.1 mg/ml to 1 mg/ml) was used for calibration. The encapsulation efficiency (EE) and loading capacity (LC) were calculated as follows: […]

Structure (SMILES)	Log P [1]	solubility in water [1] [µg/mL]	final concentration of drug loaded inside MCs ([2]; initially applied drug 0.25 mg) [µg/mL]	final concentration of drug loaded inside MCs ([2]; initially applied drug 2 mg) [µg/mL]	difference in encapsulation efficiency (EE) % with various polymer/drug ratios [2]
CCOC(=O)O[C@]1(C(=O)OCCl)CC[C@H]2[C@@H]3CCC4=CC(=O)C=C[C@]4(C)[C@H]3[C@@H](O)C[C@@]21C [LE, Loteprednol etabonate]	3.08	0.5 (≈ 1.07 µM)	55.7 ± 10.0	589.2 ± 75.5	No significant difference
CC(=O)OCC(=O)[C@@]1(O)CC[C@H]2[C@@H]3CCC4=CC(=O)C=C[C@]4(C)[C@H]3[C@@H](O)C[C@@]21C [PA, Prednisolone acetate]	–	–	171.7 ± 4.2	1154.0 ± 108.6	No significant difference
